These results are taken from patent publication US20240415819A1, “MACROCYCLIC COMPOUNDS AS PROTEASOME SUBUNIT BETA TYPE-5 INHIBITORS” (Lead Discovery Center GmbH, priority 2021, published 2024).

pIC50: −log10 of the molar value. Like-named read-outs stand apart in the source and are kept apart here. Where only a bound is given, the exact number is not on record here.

Assay [1] deals with A549 (human lung carcinoma cell line). The assay can be described thus: Glo assay of A549 cells (Table 3; ProteasomeGlo plating scheme). It counts as cell-based. The conditions noted are these: for pIC50: A549 cells, read-out: PGLo A549. The method, boiled down: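 Cells plated in 384 wells; compound, DMSO, staurosporine transferred by ECHO; 105 min, 37° C., 5% CO2; Proteasome-Glo (Suc-LLVY-Glo) reagent added; dark 10-15 min; luminescence; IC50 nM.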

Assay [2] has as its target T1, β5 subunit of the human constitutive proteasome (CPS) (Homo sapiens, UniProt P28074).
T1 construct: purchased Boston Biochem E-360
The assay can be described thus: β5 inhibition assay, human constitutive proteasome (Suc-LLVY-AMC). It counts as biochemical. The conditions noted are these: IC50 class, Suc-LLVY-AMC substrate. The method, then: The enzymatic activity of the β5 subunit of the human constitutive proteasome (CPS) is analyzed. In another assay, which differs from the assay of the human constitutive proteasome only in using the human immunoproteasome (IPS) the enzymatic activity of the β5 subunit of the human immunoproteasome (IPS) is analyzed. […] Inhibition is indicated as IC50 [nM] (“-”=not measured).

Turning to `Cc1ccc2cc1CNC(=O)[C@H](CCc1ccccc1)NC(=O)[C@@H](NC(=O)c1nc3ccccc3[nH]1)CC(=O)N1CCCC(CCO2)C1` (stereo partly drawn) [Compound 31, N-((9S,12S)-5^4-methyl-8,11,14-trioxo-9-phenethyl-4-oxa-7,10-diaza-1(3,1)-piperidina-5(1,3)-benzenacyclotetradecaphane-12-yl)-1H-benzo[d] imidazole-2-carboxamide], the pIC50 in assay [1] (Homo sapiens) and in assay [2] was greater than 7.00 each time.
In the case of `Cc1ccc2cc1CNC(=O)[C@H](CCc1ccccc1)NC(=O)[C@@H](NC1COC1)CC(=O)N1CCCC(CCO2)C1` (stereo partly drawn) [Compound 35, (9S,12S)-5^4-methyl-12-(oxetan-3-ylamino)-9-phenethyl-4-oxa-7,10-diaza-1(3,1)-piperidina-5(1,3)-benzenacyclotetradecaphane-8,11,14-trione], the pIC50 in assay [1] (Homo sapiens) was 6.30 to 7.00; in assay [2], greater than 7.00.
The corresponding values for `Cc1ccc2cc1CNC(=O)[C@H](CCc1ccccc1)NC(=O)[C@@H](NC(=O)C(C)(C)C)CC(=O)N1CCCC(CCO2)C1` (stereo partly drawn) [Compound 27, N-((9S,12S)-5^4-methyl-8,11,14-trioxo-9-phenethyl-4-oxa-7,10-diaza-1(3,1)-piperidina-5(1,3)-benzenacyclotetradecaphane-12-yl)pivalamide] are greater than 7.00 and greater than 7.00.
The corresponding values for `Cc1ccc2cc1CNC(=O)[C@H](CCc1ccccc1)NC(=O)[C@@H](NC(=O)Cc1ccccc1)CC(=O)N1CCCC(CCO2)C1` (stereo partly drawn) [Compound 29, N-((9S,12S)-5^4-methyl-8,11,14-trioxo-9-phenethyl-4-oxa-7,10-diaza-1(3,1)-piperidina-5(1,3)-benzenacyclotetradecaphane-12-yl)-2-phenylacetamide] are greater than 7.00 and greater than 7.00.
Turning to `Cc1ccc2cc1CNC(=O)[C@H](CCc1ccccc1)NC(=O)[C@@H](Nc1ncccn1)CC(=O)N1CCCC(CCO2)C1` (stereo partly drawn) [Compound 34, (9S,12S)-5^4-methyl-9-phenethyl-12-(pyrimidin-2-ylamino)-4-oxa-7,10-diaza-1(3,1)], the IC50 in assay [1] (Homo sapiens, A549, read-out: PGLo A549 [nM]) was less than 100 nM. For the same compound, the pIC50 in assay [2] was greater than 7.00.
As for `CC(=O)N[C@H]1CC(=O)N2CCCC(CCOc3ccc(C)c(c3)CNC(=O)[C@H](CCc3ccccc3)NC1=O)C2` (stereo partly drawn) [Compound 33, N-((9S,12S)-5^4-methyl-8,11,14-trioxo-9-phenethyl-4-oxa-7,10-diaza-1(3,1)-piperidina-5(1,3)-benzenacyclotetradecaphane-12-yl)acetamide], the pIC50 in assay [1] (Homo sapiens) and in assay [2] was greater than 7.00 in each case.
As to `Cc1ccc2cc1CNC(=O)[C@H](CCc1ccccc1)NC(=O)[C@@H](NC(=O)c1ncccn1)CC(=O)N1CCCC(CCO2)C1` (stereo partly drawn) [Compound 32, N-((9S,12S)-5^4-methyl-8,11,14-trioxo-9-phenethyl-4-oxa-7,10-diaza-1(3,1)-piperidina-5(1,3)-benzenacyclotetradecaphane-12-yl)pyrimidine-2-carboxamide], the pIC50 in assay [1] (Homo sapiens) and in assay [2] was greater than 7.00 throughout.
Turning to `Cc1ccc2cc1CNC(=O)C(CCc1ccccc1)NC(=O)C(NC(=O)CCc1ccccc1)CC(=O)N1CCCC(CCO2)C1` [Compound 30, N-((9S,12S)-5^4-methyl-8,11,14-trioxo-9-phenethyl-4-oxa-7,10-diaza-1(3,1)-piperidina-5(1,3)-benzenacyclotetradecaphane-12-yl)-3-phenylpropanamide], the pIC50 in assay [1] and in assay [2] was greater than 7.00 throughout.
